This assay concerns the target PI3Kα (Homo sapiens, UniProt P42336, H1047R). The experiment in a line: ADP-Glo IC50 assay. Type of assay: biochemical. Conditions: class symbols; key not given.
Chain of PI3Kα (P42336 whole entry H1047R): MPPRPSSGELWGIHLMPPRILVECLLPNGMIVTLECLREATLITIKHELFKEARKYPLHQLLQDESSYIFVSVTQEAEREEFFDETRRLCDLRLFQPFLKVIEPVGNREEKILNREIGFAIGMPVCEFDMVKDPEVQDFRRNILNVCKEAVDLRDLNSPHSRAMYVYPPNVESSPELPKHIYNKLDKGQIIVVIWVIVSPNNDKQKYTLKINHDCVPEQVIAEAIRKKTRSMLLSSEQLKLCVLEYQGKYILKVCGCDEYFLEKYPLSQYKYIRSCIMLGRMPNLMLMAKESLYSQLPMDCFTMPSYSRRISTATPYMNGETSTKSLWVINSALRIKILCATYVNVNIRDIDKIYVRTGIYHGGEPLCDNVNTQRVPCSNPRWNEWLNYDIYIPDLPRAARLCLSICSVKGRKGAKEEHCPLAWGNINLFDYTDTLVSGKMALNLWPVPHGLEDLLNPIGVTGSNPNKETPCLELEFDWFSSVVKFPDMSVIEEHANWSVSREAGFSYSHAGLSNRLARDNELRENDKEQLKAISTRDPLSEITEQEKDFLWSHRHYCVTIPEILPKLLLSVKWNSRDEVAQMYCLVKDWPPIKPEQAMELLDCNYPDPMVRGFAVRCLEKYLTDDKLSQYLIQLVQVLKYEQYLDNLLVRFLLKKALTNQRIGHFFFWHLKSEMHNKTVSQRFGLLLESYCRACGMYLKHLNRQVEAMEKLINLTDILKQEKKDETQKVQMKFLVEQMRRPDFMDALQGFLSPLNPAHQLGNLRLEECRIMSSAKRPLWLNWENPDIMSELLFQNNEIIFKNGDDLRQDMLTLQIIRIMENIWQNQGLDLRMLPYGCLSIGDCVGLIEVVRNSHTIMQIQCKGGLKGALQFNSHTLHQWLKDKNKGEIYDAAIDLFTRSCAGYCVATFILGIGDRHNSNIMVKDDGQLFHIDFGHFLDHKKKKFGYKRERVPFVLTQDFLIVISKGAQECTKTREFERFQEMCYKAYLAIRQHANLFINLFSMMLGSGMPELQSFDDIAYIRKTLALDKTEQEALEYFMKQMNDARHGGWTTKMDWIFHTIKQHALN
Chain of PI3Kα (P27986 whole entry partner): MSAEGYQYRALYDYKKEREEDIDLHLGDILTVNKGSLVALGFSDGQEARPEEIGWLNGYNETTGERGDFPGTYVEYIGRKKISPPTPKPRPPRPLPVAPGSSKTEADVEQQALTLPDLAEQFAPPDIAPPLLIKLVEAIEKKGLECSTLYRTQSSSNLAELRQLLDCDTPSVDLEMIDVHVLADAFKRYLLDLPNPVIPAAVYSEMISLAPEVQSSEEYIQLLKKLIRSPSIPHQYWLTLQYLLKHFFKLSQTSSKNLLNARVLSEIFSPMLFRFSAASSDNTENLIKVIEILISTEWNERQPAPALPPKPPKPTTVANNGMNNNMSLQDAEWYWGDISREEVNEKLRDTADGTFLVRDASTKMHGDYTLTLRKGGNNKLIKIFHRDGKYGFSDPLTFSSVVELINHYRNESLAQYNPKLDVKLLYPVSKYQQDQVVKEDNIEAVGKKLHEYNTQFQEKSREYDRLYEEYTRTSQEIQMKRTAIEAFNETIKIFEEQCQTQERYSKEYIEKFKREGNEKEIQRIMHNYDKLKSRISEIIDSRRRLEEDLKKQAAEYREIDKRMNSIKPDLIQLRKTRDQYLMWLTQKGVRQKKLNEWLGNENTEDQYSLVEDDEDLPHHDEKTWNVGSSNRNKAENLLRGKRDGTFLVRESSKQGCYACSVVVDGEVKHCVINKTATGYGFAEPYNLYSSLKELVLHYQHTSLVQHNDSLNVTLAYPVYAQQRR
`Cc1ccccc1Nc1ncc(C(=O)NCCCCCCC(=O)N[C@H](C(=O)N2C[C@H](O)C[C@H]2C(=O)N[C@@H](C)c2ccc(-c3scnc3C)cc2)C(C)(C)C)cc1NC(=O)c1csc2ccccc12` [Example I-23]: the IC50 lay in the range of 100 to 500 nM. In the case of `O=C1CCC(N2C(=O)c3ccc(NCCCCNC(=O)c4cc(NC(=O)c5cc(F)cc(C(F)(F)F)c5)c5c(c4)C(=O)N[C@H]5c4cc(F)ccc4Cl)cc3C2=O)C(=O)N1` (stereo partly drawn) [Example I-100], the IC50 was below 100 nM. The molecule `O=C1CCC(N2Cc3cc(C#CCNC(=O)c4cc(NC(=O)c5cc(F)cc(C(F)(F)F)c5)c5c(c4)C(=O)N[C@@H]5c4cc(F)ccc4Cl)ccc3C2=O)C(=O)N1` (stereo partly drawn) [Example I-102] showed an IC50 below 100 nM. Take `O=C1CCC(N2C(=O)c3ccc(NCCCNC(=O)c4cnc(Nc5cc(F)ccc5Cl)c(NC(=O)c5csc6ccccc56)c4)cc3C2=O)C(=O)N1` (stereo not drawn) [Example I-99]: the IC50 lay in the range of 100 to 500 nM. To `Cc1cc([C@@H](C)Nc2ccccc2C(=O)O)c2oc(N3CCN(C(=O)CCCNc4ccc5c(c4)C(=O)N(C4CCC(=O)NC4=O)C5=O)CC3)cc(=O)c2c1` (stereo partly drawn) [Example I-146] belongs 1000 to 10000 nM; to `Cc1ccccc1Nc1ncc(C(=O)NCCCCCCNc2cccc3c2C(=O)N(C2CCC(=O)NC2=O)C3=O)cc1NC(=O)c1csc2ccccc12` (stereo not drawn) [Example I-59], 500 to 1000 nM.

Take `Cc1ccccc1Nc1ncc(C(=O)NCCCCCC(=O)NCc2ccc3c(c2)C(=O)N(C2CCC(=O)NC2=O)C3)cc1NC(=O)c1csc2ccccc12` (stereo not drawn) [Example I-58]: the IC50 was in the range of 100 to 500 nM. `Cc1cc([C@H](C)Nc2ccccc2C(=O)O)c2oc(N3CCN(C(=O)CCCNc4cccc5c4C(=O)N(C4CCC(=O)NC4=O)C5=O)CC3)cc(=O)c2c1` (stereo partly drawn) [Example I-133]: the IC50 lay within 1000 to 10000 nM. With `Cc1ncsc1-c1ccc(CNC(=O)[C@@H]2C[C@@H](O)CN2C(=O)[C@@H](NC(=O)CCCCCCCCCNC(=O)c2cnc(Nc3cc(F)ccc3Cl)c(NC(=O)c3csc4ccccc34)c2)C(C)(C)C)cc1` [Example I-45], the IC50 is 100 to 500 nM. `O=C1CCC(N2C(=O)c3ccc(NCCCCCCCNC(=O)c4cc(NC(=O)c5cc(F)cc(C(F)(F)F)c5)c5c(c4)C(=O)N[C@H]5c4cc(F)ccc4Cl)cc3C2=O)C(=O)N1` (stereo partly drawn) [Example I-90] yielded an IC50 below 100 nM. `Cc1cc([C@@H](C)Nc2ccccc2C(=O)O)c2oc(N3CCN(C(=O)CCNc4ccc5c(c4)C(=O)N(C4CCC(=O)NC4=O)C5=O)CC3)cc(=O)c2c1` (stereo partly drawn) [Example I-140] registered an IC50 of 500 to 1000 nM.

Turning to `Cc1cc([C@H](C)Nc2ccccc2C(=O)O)c2oc(N3CCN(C(=O)CCOCCNc4ccc5c(c4)C(=O)N(C4CCC(=O)NC4=O)C5=O)CC3)cc(=O)c2c1` (stereo partly drawn) [Example I-138], the IC50 lay in the range of 1000 to 10000 nM.

`O=C1CCC(N2Cc3cc(C(=O)NCCCCCCCCCNC(=O)c4cc(NC(=O)c5cc(F)cc(C(F)(F)F)c5)c5c(c4)C(=O)N[C@@H]5c4cc(F)ccc4Cl)ccc3C2=O)C(=O)N1` (stereo partly drawn) [Example I-70] showed an IC50 of 1000 to 10000 nM. `O=C1CCC(N2Cc3cc(C(=O)NCCCCCCCCCNC(=O)c4cnc(Nc5cc(F)ccc5Cl)c(NC(=O)c5csc6ccccc56)c4)ccc3C2=O)C(=O)N1` (stereo not drawn) [Example I-34]: the IC50 lay within 500 to 1000 nM. For the molecule `Cc1ccccc1Nc1ncc(C(=O)N[C@H](CCC(=O)N[C@H](C(=O)N2C[C@H](O)C[C@H]2C(=O)NCc2ccc(-c3scnc3C)cc2)C(C)(C)C)C(O)O)cc1NC(=O)c1csc2ccccc12` [Example I-109], the IC50 is 1000 to 10000 nM. To `O=C(CCCCCCCNC(=O)c1cnc(Nc2cc(F)ccc2Cl)c(NC(=O)c2csc3ccccc23)c1)NCc1ccc2c(c1)CN(C1CCC(=O)NC1=O)C2=O` (stereo not drawn) [Example I-41] belongs 100 to 500 nM. With `O=C1CCC(N2C(=O)c3ccc(NCCOCCOCCOCCOCCOCCOCCOCCOCCOCCOCCOCCOCCNC(=O)c4cc(NC(=O)c5cc(F)cc(C(F)(F)F)c5)c5c(c4)C(=O)N[C@H]5c4cc(F)ccc4Cl)cc3C2=O)C(=O)N1` (stereo partly drawn) [Example I-156], the IC50 was below 100 nM. For the molecule `O=C1CCC(N2C(=O)c3ccc(NCCCCCNC(=O)c4cc(NC(=O)c5cc(F)cc(C(F)(F)F)c5)c5c(c4)C(=O)N[C@H]5c4cc(F)ccc4Cl)cc3C2=O)C(=O)N1` (stereo partly drawn) [Example I-85], the IC50 was below 100 nM. The value for `Cc1ncsc1-c1ccc(CNC(=O)[C@@H]2C[C@@H](O)CN2C(=O)[C@@H](NC(=O)CCCCCCCCCNC(=O)c2cc(NC(=O)c3cc(F)cc(C(F)(F)F)c3)c3c(c2)C(=O)N[C@@H]3c2cc(F)ccc2Cl)C(C)(C)C)cc1` [Example I-73] was below 100 nM. For the molecule `Cc1ncsc1-c1ccc(CNC(=O)[C@@H]2C[C@@H](O)CN2C(=O)[C@@H](NC(=O)CCCCCCCCCNC(=O)c2cc(NC(=O)c3cc(F)cc(C(F)(F)F)c3)c3c(c2)C(=O)N[C@H]3c2cc(F)ccc2Cl)C(C)(C)C)cc1` [Example I-71], the IC50 was in the range of 500 to 1000 nM.

For the molecule `O=C(CCCCCCCNC(=O)c1cc(NC(=O)c2cc(F)cc(C(F)(F)F)c2)c2c(c1)C(=O)N[C@@H]2c1cc(F)ccc1Cl)NCc1ccc2c(c1)CN(C1CCC(=O)NC1=O)C2=O` (stereo partly drawn) [Example I-92], the half-maximal inhibitory concentration (IC50) fell in the range of 500 to 1000 nM. To `O=C1CCC(N2C(=O)c3ccc(NCCCCNC(=O)c4cc(NC(=O)c5cc(F)cc(C(F)(F)F)c5)c5c(c4)C(=O)N[C@@H]5c4cc(F)ccc4Cl)cc3C2=O)C(=O)N1` (stereo partly drawn) [Example I-94] belongs 500 to 1000 nM; to `O=C1CCC(N2Cc3cc(C(=O)NCCCCCCCNC(=O)c4cc(NC(=O)c5cc(F)cc(C(F)(F)F)c5)c5c(c4)C(=O)N[C@@H]5c4cc(F)ccc4Cl)ccc3C2=O)C(=O)N1` (stereo partly drawn) [Example I-80], 100 to 500 nM; to `Cc1cc([C@@H](C)Nc2ccccc2C(=O)O)c2oc(N3CCN(C(=O)CCNc4cccc5c4C(=O)N(C4CCC(=O)NC4=O)C5=O)CC3)cc(=O)c2c1` (stereo partly drawn) [Example I-135], 500 to 1000 nM. To `Cc1cc([C@H](C)Nc2ccccc2C(=O)O)c2oc(N3CCN(C(=O)CCC(=O)NCc4ccc5c(c4)C(=O)N(C4CCC(=O)NC4=O)C5)CC3)cc(=O)c2c1` (stereo partly drawn) [Example I-127] belongs 1000 to 10000 nM; to `O=C1CCC(N2C(=O)c3ccc(NCCCNC(=O)c4cc(NC(=O)c5cc(F)cc(C(F)(F)F)c5)c5c(c4)C(=O)N[C@H]5c4cc(F)ccc4Cl)cc3C2=O)C(=O)N1` (stereo partly drawn) [Example I-98], below 100 nM; to `O=C1CCC(N2C(=O)c3ccc(NCCCCCNC(=O)c4cnc(Nc5cc(F)ccc5Cl)c(NC(=O)c5csc6ccccc56)c4)cc3C2=O)C(=O)N1` (stereo not drawn) [Example I-63], 100 to 500 nM. `Cc1cc(Br)c2oc(N3CCN(C(=O)CCCCCCNC(=O)c4cnc(Nc5ccccc5C)c(NC(=O)c5csc6ccccc56)c4)CC3)cc(=O)c2c1` [Example I-108]: the IC50 fell in the range of 100 to 500 nM. Regarding `Cc1cc([C@@H](C)Nc2ccccc2C(=O)O)c2oc(N3CCN(C(=O)CCCCCNc4ccc5c(c4)C(=O)N(C4CCC(=O)NC4=O)C5=O)CC3)cc(=O)c2c1` (stereo partly drawn) [Example I-132], the IC50 was 500 to 1000 nM.

Molecule `Cc1cc([C@@H](C)Nc2ccccc2C(=O)O)c2oc(N3CCN(C(=O)CCCNc4cccc5c4C(=O)N(C4CCC(=O)NC4=O)C5=O)CC3)cc(=O)c2c1` (stereo partly drawn) [Example I-141] displayed an IC50 of 500 to 1000 nM. `O=C1CCC(N2Cc3cc(C(=O)NCCCCCCCNC(=O)c4cnc(Nc5cc(F)ccc5Cl)c(NC(=O)c5csc6ccccc56)c4)ccc3C2=O)C(=O)N1` (stereo not drawn) [Example I-66] showed an IC50 of 100 to 500 nM. On to `Cc1cc([C@@H](C)Nc2ccccc2C(=O)O)c2oc(N3CCN(C(=O)CCOCCOCCNC(=O)c4cnc(Nc5ccccc5C)c(NC(=O)c5csc6ccccc56)c4)CC3)cc(=O)c2c1` [Example I-125], for which the IC50 was below 100 nM. Take `Cc1ccccc1Nc1ncc(C(=O)NCCCCCCCCNc2ccc3c(c2)C(=O)N(C2CCC(=O)NC2=O)C3=O)cc1NC(=O)c1csc2ccccc12` (stereo not drawn) [Example I-16]: the IC50 was 100 to 500 nM. As to `Cc1ccccc1Nc1ncc(C(=O)NCCCC(=O)N[C@H](C(=O)N2C[C@H](O)C[C@H]2C(=O)NCc2ccc(-c3scnc3C)cc2)C(C)(C)C)cc1NC(=O)c1csc2ccccc12` [Example I-48], the IC50 was 500 to 1000 nM. Molecule `Cc1cc([C@H](C)Nc2ccccc2C(=O)O)c2oc(N3CCN(C(=O)CCCCCNc4ccc5c(c4)C(=O)N(C4CCC(=O)NC4=O)C5=O)CC3)cc(=O)c2c1` (stereo partly drawn) [Example I-128] had an IC50 of 1000 to 10000 nM. The value for `NC(=O)CCCCCCCCCNC(=O)c1cc(NC(=O)c2cc(F)cc(C(F)(F)F)c2)c2c(c1)C(=O)N[C@@H]2c1cc(F)ccc1Cl` [Example I-83] was below 100 nM.

Molecule `Cc1ccccc1Nc1ncc(C(=O)NCCOCCOCCC(=O)N[C@H](C(=O)N2C[C@H](O)C[C@H]2C(=O)N[C@@H](C)c2ccc(-c3scnc3C)cc2)C(C)(C)C)cc1NC(=O)c1csc2ccccc12` [Example I-40] yielded an IC50 of 1000 to 10000 nM.

Take `O=C1CCC(N2Cc3cc(C(=O)NCCCCCCCNC(=O)c4cc(NC(=O)c5cc(F)cc(C(F)(F)F)c5)c5c(c4)C(=O)N[C@H]5c4cc(F)ccc4Cl)ccc3C2=O)C(=O)N1` (stereo partly drawn) [Example I-77]: the IC50 is below 100 nM.

Molecule `Cc1cc([C@@H](C)Nc2ccccc2C(=O)O)c2oc(N3CCN(C(=O)CCC(=O)NCc4ccc5c(c4)C(=O)N(C4CCC(=O)NC4=O)C5)CC3)cc(=O)c2c1` (stereo partly drawn) [Example I-149] displayed an IC50 of 1000 to 10000 nM. For `Cc1ccccc1Nc1ncc(C(=O)NCCCCC(=O)N[C@H](C(=O)N2C[C@H](O)C[C@H]2C(=O)NCc2ccc(-c3scnc3C)cc2)C(C)(C)C)cc1NC(=O)c1csc2ccccc12` [Example I-43], the IC50 is 500 to 1000 nM. `Cc1cc([C@H](C)Nc2ccccc2C(=O)O)c2oc(N3CCN(C(=O)CCOCCOCCNC(=O)c4cnc(Nc5ccccc5C)c(NC(=O)c5csc6ccccc56)c4)CC3)cc(=O)c2c1` [Example I-126] displayed an IC50 of 100 to 500 nM.

As to `Cc1cc([C@H](C)Nc2ccccc2C(=O)O)c2oc(N3CCN(C(=O)CCCCCCCNc4cccc5c4C(=O)N(C4CCC(=O)NC4=O)C5=O)CC3)cc(=O)c2c1` (stereo partly drawn) [Example I-136], the IC50 fell in the range of 1000 to 10000 nM. As for `Cc1cc([C@@H](C)Nc2ccccc2)c2oc(N3CCN(C(=O)CCOCCOCCNC(=O)c4cnc(Nc5ccccc5C)c(NC(=O)c5csc6ccccc56)c4)CC3)cc(=O)c2c1` [Example I-111], the IC50 is below 100 nM.

Molecule `Cc1ccccc1Nc1ncc(C(=O)Nc2ccc(N3CCN(c4ccc5c(c4)C(=O)N(C4CCC(=O)NC4=O)C5=O)CC3)cc2)cc1NC(=O)c1csc2ccccc12` (stereo not drawn) [Example I-55] yielded an IC50 of 100 to 500 nM. To `O=C1CCC(N2Cc3cc(C#CCNC(=O)c4cnc(Nc5cc(F)ccc5Cl)c(NC(=O)c5csc6ccccc56)c4)ccc3C2=O)C(=O)N1` (stereo not drawn) [Example I-95] belongs below 100 nM.
